The values below are quoted from earlier work in patent US12409239B2, “Particles for use in hyperpolarization” (BEACON MRI LTD, priority 2021, dated 2025).

For this series the following is noted: background statement.

On to `CC(=O)C(=O)O` [pyruvate/pyruvic acid, pyruvic acid], for which the T1 entry is on record as “about a minute”.
